Results reported in PubChem BioAssay (NCI).
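Where inhibition never reached the appropriate level, the endpoint shown equals the highest concentration tested. Otherwise, values were interpolated linearly from a five-concentration, 48-hour dose response in 96-well plates. TGI is the concentration that stops growth completely.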

How the values were obtained:
Assay in all cases: NCI tumour cell line growth inhibition, 48 h
786-0 renal = tested on: 786-0 renal
A498 renal = tested on: A498 renal
A549 NSCLC = tested on: A549 NSCLC
ACHN renal = tested on: ACHN renal
BT-549 breast = tested on: BT-549 breast
CAKI-1 renal = tested on: CAKI-1 renal
CCRF-CEM leukemia = tested on: CCRF-CEM leukemia
COLO 205 colon = tested on: COLO 205 colon
DU-145 prostate = tested on: DU-145 prostate
EKVX NSCLC = tested on: EKVX NSCLC
HCC-2998 colon = tested on: HCC-2998 colon
HCT-116 colon = tested on: HCT-116 colon
HCT-15 colon = tested on: HCT-15 colon
HL-60(TB) leukemia = tested on: HL-60(TB) leukemia
HOP-62 NSCLC = tested on: HOP-62 NSCLC
HOP-92 NSCLC = tested on: HOP-92 NSCLC
HS 578T breast = tested on: HS 578T breast
HT29 colon = tested on: HT29 colon
IGROV1 ovarian = tested on: IGROV1 ovarian
K-562 leukemia = tested on: K-562 leukemia
KM12 colon = tested on: KM12 colon
LOX IMVI melanoma = tested on: LOX IMVI melanoma
M14 melanoma = tested on: M14 melanoma
MALME-3M melanoma = tested on: MALME-3M melanoma
MCF7 breast = tested on: MCF7 breast
MDA-MB-231 breast = tested on: MDA-MB-231 breast
MDA-MB-435 = tested on: MDA-MB-435
MDA-N = tested on: MDA-N
MOLT-4 leukemia = tested on: MOLT-4 leukemia
NCI-H226 lung = tested on: NCI-H226 lung
NCI-H23 lung = tested on: NCI-H23 lung
NCI-H460 lung = tested on: NCI-H460 lung
NCI-H522 lung = tested on: NCI-H522 lung
NCI/ADR-RES ovarian = tested on: NCI/ADR-RES ovarian
OVCAR-3 ovarian = tested on: OVCAR-3 ovarian
OVCAR-4 ovarian = tested on: OVCAR-4 ovarian
OVCAR-5 ovarian = tested on: OVCAR-5 ovarian
OVCAR-8 ovarian = tested on: OVCAR-8 ovarian
PC-3 prostate = tested on: PC-3 prostate
RPMI-8226 leukemia = tested on: RPMI-8226 leukemia
RXF 393 renal = tested on: RXF 393 renal
SF-268 CNS = tested on: SF-268 CNS
SF-295 CNS = tested on: SF-295 CNS
SF-539 CNS = tested on: SF-539 CNS
SK-MEL-2 melanoma = tested on: SK-MEL-2 melanoma
SK-MEL-28 melanoma = tested on: SK-MEL-28 melanoma
SK-OV-3 ovarian = tested on: SK-OV-3 ovarian
SN12C renal = tested on: SN12C renal
SNB-19 CNS = tested on: SNB-19 CNS
SNB-75 CNS = tested on: SNB-75 CNS
SW-620 colon = tested on: SW-620 colon
T-47D breast = tested on: T-47D breast
TK-10 renal = tested on: TK-10 renal
U251 CNS = tested on: U251 CNS
UACC-257 melanoma = tested on: UACC-257 melanoma
UACC-62 melanoma = tested on: UACC-62 melanoma
SK-MEL-5 melanoma = tested on: SK-MEL-5 melanoma
SR leukemia = tested on: SR leukemia
UO-31 renal = tested on: UO-31 renal

Work on `O=C1c2[nH]c3ccccc3c2CCN2CCCCC12` (stereo not drawn) yielded a TGI (786-0 renal) of 56.9 µM, a TGI (A498 renal) of 78.3 µM and a TGI (A549 NSCLC) of 76.3 µM. The TGI (ACHN renal) was 46 µM, the TGI (BT-549 breast) was 65.8 µM and the TGI (CAKI-1 renal) was greater than 100 µM. It also gave a TGI (CCRF-CEM leukemia) of 57.3 µM, a TGI (COLO 205 colon) of 34.9 µM and a TGI (DU-145 prostate) greater than 100 µM. It also gave a TGI (EKVX NSCLC) of 53.7 µM, a TGI (HCC-2998 colon) of 33.2 µM and a TGI (HCT-116 colon) of 54.6 µM. It also gave a TGI (HCT-15 colon) greater than 100 µM, a TGI (HL-60(TB) leukemia) of 13.3 µM and a TGI (HOP-62 NSCLC) greater than 100 µM. For the same compound, the TGI (HOP-92 NSCLC) was 41.8 µM, the TGI (HS 578T breast) was 71.8 µM and the TGI (HT29 colon) was greater than 100 µM. It also gave a TGI (IGROV1 ovarian) of 56 µM, a TGI (K-562 leukemia) of 95.3 µM and a TGI (KM12 colon) of 32.4 µM. For the same compound, the TGI (LOX IMVI melanoma) was 44.9 µM, the TGI (M14 melanoma) was 35.3 µM and the TGI (MALME-3M melanoma) was 46.5 µM. The TGI (MCF7 breast) was greater than 100 µM, the TGI (MDA-MB-231 breast) was 41.3 µM and the TGI (MDA-MB-435) was 31 µM. The TGI (MDA-N) was 39.6 µM, the TGI (MOLT-4 leukemia) was 56.7 µM and the TGI (NCI-H226 lung) was 48.8 µM. It also gave a TGI (NCI-H23 lung) of 63.7 µM, a TGI (NCI-H460 lung) greater than 100 µM and a TGI (NCI-H522 lung) of 39.8 µM. It also gave a TGI (NCI/ADR-RES ovarian) of 59 µM, a TGI (OVCAR-3 ovarian) of 37.1 µM and a TGI (OVCAR-4 ovarian) of 96.5 µM. It also gave a TGI (OVCAR-5 ovarian) of 44.1 µM, a TGI (OVCAR-8 ovarian) of 65.9 µM and a TGI (PC-3 prostate) of 35.7 µM. It also gave a TGI (RPMI-8226 leukemia) of 42.6 µM, a TGI (RXF 393 renal) of 61.2 µM and a TGI (SF-268 CNS) of 78.9 µM. The TGI (SF-295 CNS) was 90.2 µM, the TGI (SF-539 CNS) was 40.2 µM and the TGI (SK-MEL-2 melanoma) was 36.3 µM. For the same compound, the TGI (SK-MEL-28 melanoma) was greater than 100 µM, the TGI (SK-OV-3 ovarian) was greater than 100 µM and the TGI (SN12C renal) was greater than 100 µM. It also gave a TGI (SNB-19 CNS) of 61.7 µM, a TGI (SNB-75 CNS) of 73.5 µM and a TGI (SW-620 colon) of 65.9 µM. The TGI (T-47D breast) was 74.9 µM, the TGI (TK-10 renal) was 72.4 µM and the TGI (U251 CNS) was 38.3 µM. For the same compound, the TGI (UACC-257 melanoma) was 39.5 µM and the TGI (UACC-62 melanoma) was 37 µM.
With `COc1ccc(/C=C2\Oc3cc(OC(C)=O)ccc3C2=O)cc1` the TGI (786-0 renal) was greater than 100 µM, the TGI (A549 NSCLC) was greater than 100 µM and the TGI (ACHN renal) was greater than 100 µM. The TGI (BT-549 breast) was greater than 100 µM, the TGI (CAKI-1 renal) was 86.7 µM and the TGI (CCRF-CEM leukemia) was greater than 100 µM. The TGI (COLO 205 colon) was greater than 100 µM, the TGI (DU-145 prostate) was greater than 100 µM and the TGI (EKVX NSCLC) was greater than 100 µM. It also gave a TGI (HCC-2998 colon) greater than 100 µM, a TGI (HCT-116 colon) greater than 100 µM and a TGI (HCT-15 colon) greater than 100 µM. It also gave a TGI (HL-60(TB) leukemia) greater than 100 µM, a TGI (HOP-62 NSCLC) greater than 100 µM and a TGI (HS 578T breast) greater than 100 µM. For the same compound, the TGI (IGROV1 ovarian) was greater than 100 µM, the TGI (K-562 leukemia) was greater than 100 µM and the TGI (KM12 colon) was greater than 100 µM. It also gave a TGI (M14 melanoma) greater than 100 µM, a TGI (MCF7 breast) greater than 100 µM and a TGI (MDA-MB-231 breast) greater than 100 µM. For the same compound, the TGI (MDA-MB-435) was greater than 100 µM, the TGI (MDA-N) was greater than 100 µM and the TGI (MOLT-4 leukemia) was greater than 100 µM. For the same compound, the TGI (NCI-H226 lung) was greater than 100 µM, the TGI (NCI-H23 lung) was greater than 100 µM and the TGI (NCI-H460 lung) was greater than 100 µM. It also gave a TGI (NCI-H522 lung) of 45.1 µM, a TGI (NCI/ADR-RES ovarian) greater than 100 µM and a TGI (OVCAR-3 ovarian) greater than 100 µM. The TGI (OVCAR-4 ovarian) was greater than 100 µM, the TGI (OVCAR-8 ovarian) was greater than 100 µM and the TGI (PC-3 prostate) was greater than 100 µM. The TGI (RPMI-8226 leukemia) was greater than 100 µM, the TGI (RXF 393 renal) was greater than 100 µM and the TGI (SF-268 CNS) was greater than 100 µM. For the same compound, the TGI (SF-295 CNS) was greater than 100 µM, the TGI (SF-539 CNS) was greater than 100 µM and the TGI (SK-MEL-28 melanoma) was greater than 100 µM. For the same compound, the TGI (SK-MEL-5 melanoma) was greater than 100 µM, the TGI (SK-OV-3 ovarian) was greater than 100 µM and the TGI (SN12C renal) was greater than 100 µM. For the same compound, the TGI (SNB-19 CNS) was greater than 100 µM, the TGI (SNB-75 CNS) was greater than 100 µM and the TGI (SR leukemia) was greater than 100 µM. It also gave a TGI (SW-620 colon) greater than 100 µM, a TGI (T-47D breast) greater than 100 µM and a TGI (TK-10 renal) greater than 100 µM. For the same compound, the TGI (U251 CNS) was greater than 100 µM, the TGI (UACC-257 melanoma) was greater than 100 µM and the TGI (UACC-62 melanoma) was greater than 100 µM. For the same compound, the TGI (UO-31 renal) was greater than 100 µM.
